Assay results reported in US20130324582A1, “METHODS AND COMPOSITIONS FOR REDUCING FUNGAL INFESTATION AND IMPROVING GRASS QUALITY” (BAYER CROPSCIENCE LP, priority 2012, published 2013).

Test system: Dollar Spot
Experiment: Dollar Spot infestation on Bentgrass Green (field application by knapsack sprayer)
Format: in vivo, Sclerotinia homoeocarpa
Details: applied at 0, 6, 14 days
Text: Example 1 sets forth the Dollar Spot infestation on Bentgrass Green.
A suspension concentrate composition of Compound I-1 as defined herein with and without the addition of Synergen® KN was applied to Bentgrass Green at 0, 6, and 14 days using a knapsack sprayer. Synergen® KN contains a blend of phosphate and ethoxylated alcohol compounds, such as a blend of poly(oxy-1,2-ethanediyl), α-isotridecyl-ω-hydroxy-, phosphate and ethoxylated C12-C16 alcohols.
In Table 1, untreated Bentgrass Green (1) was compared to a composition including Compound I-1 at 440 grams/hectacre (“GA/HA”) (2), a composition including Compound I-1 at 440 GA/HA+Synergen® KN at 1% by volume (3), a composition including Compound I-1 at 880 GA/HA (4), a composition including Compound I-1 at 880 GA/HA+Synergen® KN at 1% by volume (5), a composition including Compound I-1 at 1320 GA/HA (6), and composition including a Compound I-1 at 1320 GA/HA+Synergen® KN at 1% by volume (7). As set forth in Table 1, ratings were evaluated at −1, 6, 13, 22, 28, 35, and 48 days.

Cn1c(=O)c2sc3c(=O)n(C)c(=O)c3sc2c1=O [Compound I-1, 2,6-dimethyl-1H,5H-[1,4]dithiino[2,3-c:5,6-c′]dipyrrole-1,3,5,7(2H,6H)-tetrone]
Percentage of Dollar Spot (440 GA/HA, rating Day 6, adjuvant where present 1% by volume): 7.5% | Percentage of Dollar Spot (440 GA/HA, rating Day 13, adjuvant where present 1% by volume): 10.8% | Percentage of Dollar Spot (440 GA/HA, rating Day 22, adjuvant where present 1% by volume): 12.8% | Percentage of Dollar Spot (440 GA/HA, rating Day 28, adjuvant where present 1% by volume): 14.5% | Percentage of Dollar Spot (440 GA/HA, rating Day 35, adjuvant where present 1% by volume): 19.5% | Percentage of Dollar Spot (440 GA/HA, rating Day 48, adjuvant where present 1% by volume): 22.8% | Percentage of Dollar Spot (440 GA/HA, rating Day −1, adjuvant where present 1% by volume): 8.3% | Percentage of Dollar Spot (880 GA/HA, rating Day 6, adjuvant where present 1% by volume): 7.8% | Percentage of Dollar Spot (880 GA/HA, rating Day 13, adjuvant where present 1% by volume): 10.5% | Percentage of Dollar Spot (880 GA/HA, rating Day 22, adjuvant where present 1% by volume): 11.3% | Percentage of Dollar Spot (880 GA/HA, rating Day 28, adjuvant where present 1% by volume): 12.5% | Percentage of Dollar Spot (880 GA/HA, rating Day 35, adjuvant where present 1% by volume): 17% | Percentage of Dollar Spot (880 GA/HA, rating Day 48, adjuvant where present 1% by volume): 20.8% | Percentage of Dollar Spot (880 GA/HA, rating Day −1, adjuvant where present 1% by volume): 8.3% | Percentage of Dollar Spot (1320 GA/HA, rating Day 6, adjuvant where present 1% by volume): 8.3% | Percentage of Dollar Spot (1320 GA/HA, rating Day 13, adjuvant where present 1% by volume): 10.5% | Percentage of Dollar Spot (1320 GA/HA, rating Day 22, adjuvant where present 1% by volume): 12.8% | Percentage of Dollar Spot (1320 GA/HA, rating Day 28, adjuvant where present 1% by volume): 14.8% | Percentage of Dollar Spot (1320 GA/HA, rating Day 35, adjuvant where present 1% by volume): 17% | Percentage of Dollar Spot (1320 GA/HA, rating Day 48, adjuvant where present 1% by volume): 20% | Percentage of Dollar Spot (1320 GA/HA, rating Day −1, adjuvant where present 1% by volume): 9%
